Laboratory results: ChEMBL document CHEMBL4190322, “Structure-based development of novel triazoles and related thiazolotriazoles as anticancer agents and Cdc25A/B phosphatase inhibitors. Synthesis, in vitro biological evaluation, molecular docking and in silico ADME-T studies” (Eur J Med Chem, 2017)
pIC50: −log10 of the molar value. The source made the active and inactive calls. The calls are words filed in the database; no cut-off is given here.

Key:
[1] = test system: UACC-257; test: Growth inhibition of human UACC257 cells at 10 uM after 48 hrs by SRB assay relative to control; assay type: functional
[2] = test system: NCI-H23; test: Growth inhibition of human NCI-H23 cells at 10 uM after 48 hrs by SRB assay relative to control; assay type: functional; conditions: NCI-H23, 48 h, read-out: GI
[3] = test system: MOLT-4; test: Growth inhibition of human MOLT4 cells at 10 uM after 48 hrs by SRB assay relative to control; assay type: functional; conditions: MOLT-4, 48 h, read-out: GI
[4] = test system: CAKI-1; test: Growth inhibition of human Caki1 cells at 10 uM after 48 hrs by SRB assay relative to control; assay type: functional; conditions: CAKI-1, 48 h, read-out: GI
[5] = test system: NCI-H522; test: Growth inhibition of human NCI-H522 cells at 10 uM after 48 hrs by SRB assay relative to control; assay type: functional; conditions: NCI-H522, 48 h, read-out: GI
[6] = test system: HOP-62; test: Growth inhibition of human HOP62 cells at 10 uM after 48 hrs by SRB assay relative to control; assay type: functional; conditions: HOP-62, 48 h, read-out: GI
[7] = test system: OVCAR-8; test: Growth inhibition of human OVCAR8 cells at 10 uM after 48 hrs by SRB assay relative to control; assay type: functional; conditions: for inhibition of growth at 10 µM: OVCAR-8, 48 h, read-out: GI
[8] = test system: LOX IMVI; test: Growth inhibition of human LOXIMVI cells at 10 uM after 48 hrs by SRB assay relative to control; assay type: functional; conditions: read-out: GI
[9] = test system: SNB-19; test: Growth inhibition of human SNB19 cells at 10 uM after 48 hrs by SRB assay relative to control; assay type: functional; conditions: for inhibition of growth at 10 µM: SNB-19, 48 h, read-out: GI
[10] = test system: HOP-92; test: Growth inhibition of human HOP92 cells at 10 uM after 48 hrs by SRB assay relative to control; assay type: functional; conditions: HOP-92, 48 h, read-out: GI
[11] = test system: 786-0; test: Growth inhibition of human 786-0 cells at 10 uM after 48 hrs by SRB assay relative to control; assay type: functional; conditions: for inhibition of growth at 10 µM: 786-0, 48 h, read-out: GI
[12] = test system: SNB-75; test: Growth inhibition of human SNB75 cells at 10 uM after 48 hrs by SRB assay relative to control; assay type: functional; conditions: SNB-75, 48 h, read-out: GI
[13] = test system: PC-3; test: Growth inhibition of human PC3 cells at 10 uM after 48 hrs by SRB assay relative to control; assay type: functional; conditions: PC-3, 48 h, read-out: GI
[14] = test system: SR; test: Growth inhibition of human SR cells at 10 uM after 48 hrs by SRB assay relative to control; assay type: functional; conditions: read-out: GI
[15] = test system: A549; test: Growth inhibition of human A549 cells at 10 uM after 48 hrs by SRB assay relative to control; assay type: functional; conditions: for inhibition of growth at 10 µM: A549, 48 h, read-out: GI
[16] = molecular target: T1, M-phase inducer phosphatase 1 (Homo sapiens, UniProt P30304); test: Inhibition of human CDC25A using OMFP as substrate after 15 mins by fluorescence assay
T1 sequence (P30304 whole entry): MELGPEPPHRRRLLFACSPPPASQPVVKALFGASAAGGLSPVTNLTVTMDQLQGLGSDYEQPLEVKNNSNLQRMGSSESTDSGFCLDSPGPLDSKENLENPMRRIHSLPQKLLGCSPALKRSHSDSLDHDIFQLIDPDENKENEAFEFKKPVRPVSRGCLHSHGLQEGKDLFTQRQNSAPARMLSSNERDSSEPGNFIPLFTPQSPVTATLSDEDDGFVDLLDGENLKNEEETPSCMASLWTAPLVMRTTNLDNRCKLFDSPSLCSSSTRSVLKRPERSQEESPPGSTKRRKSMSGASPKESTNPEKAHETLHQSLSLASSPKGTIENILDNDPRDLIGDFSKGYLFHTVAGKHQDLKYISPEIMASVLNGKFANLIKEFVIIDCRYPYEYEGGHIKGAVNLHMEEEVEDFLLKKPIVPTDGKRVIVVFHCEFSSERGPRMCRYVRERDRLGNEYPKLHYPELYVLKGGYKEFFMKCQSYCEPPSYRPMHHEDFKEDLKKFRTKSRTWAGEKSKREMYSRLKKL

[17] = test system: SF-268; test: Growth inhibition of human SF268 cells at 10 uM after 48 hrs by SRB assay relative to control; assay type: functional; conditions: SF-268, 48 h, read-out: GI
[18] = test system: OVCAR-3; test: Growth inhibition of human OVCAR3 cells at 10 uM after 48 hrs by SRB assay relative to control; assay type: functional; conditions: for inhibition of growth at 10 µM: OVCAR-3, 48 h, read-out: GI
[19] = test system: OVCAR-4; test: Growth inhibition of human OVCAR4 cells at 10 uM after 48 hrs by SRB assay relative to control; assay type: functional; conditions: OVCAR-4, 48 h, read-out: GI
[20] = test system: SK-OV-3; test: Growth inhibition of human SKOV3 cells at 10 uM after 48 hrs by SRB assay relative to control; assay type: functional; conditions: SK-OV-3, 48 h, read-out: GI
[21] = test system: HCT-116; test: Growth inhibition of human HCT116 cells at 10 uM after 48 hrs by SRB assay relative to control; assay type: functional; conditions: for inhibition of growth at 10 µM: HCT-116, 48 h, read-out: GI
[22] = test system: A498; test: Growth inhibition of human A498 cells at 10 uM after 48 hrs by SRB assay relative to control; assay type: functional; conditions: A498, 48 h, read-out: GI
[23] = test system: SK-MEL-5; test: Growth inhibition of human SK-MEL-5 cells at 10 uM after 48 hrs by SRB assay relative to control; assay type: functional; conditions: SK-MEL-5, 48 h, read-out: GI
[24] = test system: UO-31; test: Growth inhibition of human UO31 cells at 10 uM after 48 hrs by SRB assay relative to control; assay type: functional; conditions: UO-31, 48 h, read-out: GI
[25] = test system: U-251; test: Growth inhibition of human U251 cells at 10 uM after 48 hrs by SRB assay relative to control; assay type: functional; conditions: U-251, 48 h, read-out: GI
[26] = test system: MCF7; test: Growth inhibition of human MCF7 cells at 10 uM after 48 hrs by SRB assay relative to control; assay type: functional; conditions: MCF7, 48 h, read-out: GI
[27] = test system: MDA-MB-468; test: Growth inhibition of human MDA-MB-468 cells at 10 uM after 48 hrs by SRB assay relative to control; assay type: functional; conditions: for inhibition of growth at 10 µM: MDA-MB-468, 48 h, read-out: GI
[28] = test system: RXF 393; test: Growth inhibition of human RXF393 cells at 10 uM after 48 hrs by SRB assay relative to control; assay type: functional; conditions: for inhibition of growth at 10 µM: RXF 393, 48 h, read-out: GI
[29] = test system: RPMI-8226; test: Growth inhibition of human RPMI8226 cells at 10 uM after 48 hrs by SRB assay relative to control; assay type: functional; conditions: RPMI-8226, 48 h, read-out: GI
[30] = test system: K562; test: Growth inhibition of human K562 cells at 10 uM after 48 hrs by SRB assay relative to control; assay type: functional; conditions: K562, 48 h, read-out: GI
[31] = test system: Malme-3M; test: Growth inhibition of human MALME-3M cells at 10 uM after 48 hrs by SRB assay relative to control; assay type: functional; conditions: read-out: GI
[32] = test system: NCI-H322M; test: Growth inhibition of human NCI-H322M cells at 10 uM after 48 hrs by SRB assay relative to control; assay type: functional; conditions: read-out: GI

Row | Structure (SMILES) | inhibition of growth at 10 µM [2] | inhibition of growth at 10 µM [3] | inhibition of growth at 10 µM [4] | inhibition of growth at 10 µM [5] | inhibition of growth at 10 µM [6] | inhibition of growth at 10 µM [8] | inhibition of growth at 10 µM [10] | inhibition of growth at 10 µM [12] | inhibition of growth at 10 µM [13] | inhibition of growth at 10 µM [14] | pIC50 [16] | inhibition of growth at 10 µM [17] | inhibition of growth at 10 µM [19] | inhibition of growth at 10 µM [20] | inhibition of growth at 10 µM [22] | inhibition of growth at 10 µM [23] | inhibition of growth at 10 µM [24] | inhibition of growth at 10 µM [25] | inhibition of growth at 10 µM [26] | inhibition of growth at 10 µM [29] | further results
1 | COc1ccc(Cc2nnc(SCC(=O)Nc3ccc(Cl)cc3)n2-c2ccccc2)cc1 | 8.87% | 42.3% | 13.7% | 22.3% | 8.3% | 11.9% | 30% | 8.27% | 45.2% | 31.2% | 4.48 | 12.6% | 1.8% | 14.1% | 15.5% | 3.39% | 27.2% | 4.12% | 4.1% | 20.6% | growth inhibition (GI) [1]: inactive; growth inhibition (GI) [7]: inactive; inhibition of growth at 10 µM [9]: 3%; growth inhibition (GI) [11]: inactive; growth inhibition (GI) [15]: inactive; growth inhibition (GI) [18]: inactive; inhibition of growth at 10 µM [21]: 2%; growth inhibition (GI) [27]: inactive; inhibition of growth at 10 µM [28]: 3.85%; inhibition of growth at 10 µM [30]: 25%; inhibition of growth at 10 µM [31]: 11.7%; inhibition of growth at 10 µM [32]: 8.75%
2 | COc1ccc(Cc2nnc(SCC(=O)c3ccc(Cl)cc3)n2-c2ccccc2)cc1 | 8.1% | 24% | 13.5% | 21% | 1.26% | 3.4% | 24.1% | 12.8% | 36.2% | 24.1% | 4.51 | 3.38% | 22% | 7.83% | 24.5% | 7% | 20.1% | 10.1% | 6.26% | 13.7% | growth inhibition (GI) [1]: inactive; growth inhibition (GI) [7]: inactive; inhibition of growth at 10 µM [9]: 5%; inhibition of growth at 10 µM [11]: 7.77%; inhibition of growth at 10 µM [15]: 4.57%; inhibition of growth at 10 µM [18]: 4.64%; growth inhibition (GI) [21]: inactive; inhibition of growth at 10 µM [27]: 8.55%; inhibition of growth at 10 µM [28]: 2%; inhibition of growth at 10 µM [30]: 26.7%; inhibition of growth at 10 µM [31]: 16.9%; inhibition of growth at 10 µM [32]: 8.4%
3 | COc1ccc(Cc2nnc(SCC(=O)c3ccc(Cl)cc3)n2-c2ccc(C)cc2)cc1 | 5.6% | 32.7% | 6.12% | 23% | 11.7% | 1.19% | 36.9% | 11.4% | 26% | 20% | 4.69 | 1.22% | 18.6% | 1.07% | 46% | 1.52% | 14% | 10.4% | 8.76% | 25% | growth inhibition (GI) [1]: inactive; inhibition of growth at 10 µM [7]: 1.7%; growth inhibition (GI) [9]: inactive; growth inhibition (GI) [11]: inactive; inhibition of growth at 10 µM [15]: 4.54%; inhibition of growth at 10 µM [18]: 4.28%; growth inhibition (GI) [21]: inactive; inhibition of growth at 10 µM [27]: 11%; growth inhibition (GI) [28]: inactive; inhibition of growth at 10 µM [30]: 53.5%; inhibition of growth at 10 µM [31]: 12%; inhibition of growth at 10 µM [32]: 4%
4 | COc1ccc(Cc2nnc(SCC(=O)Nc3ccc(Cl)cc3)n2Cc2ccccc2)cc1 | 9% | 36% | 21.4% | 29.3% | 12% | 12.2% | 29.8% | 4% | 47.3% | 25.7% | 4.85 | 12% | 11.8% | 16.2% | 16% | 4.45% | 31.7% | 5.5% | 11.1% | 22.5% | growth inhibition (GI) [1]: inactive; growth inhibition (GI) [7]: inactive; inhibition of growth at 10 µM [9]: 6.27%; inhibition of growth at 10 µM [11]: 11.4%; inhibition of growth at 10 µM [15]: 1.05%; inhibition of growth at 10 µM [18]: 3%; inhibition of growth at 10 µM [21]: 11%; growth inhibition (GI) [27]: inactive; growth inhibition (GI) [28]: inactive; inhibition of growth at 10 µM [30]: 34.5%; inhibition of growth at 10 µM [31]: 5.6%; inhibition of growth at 10 µM [32]: 14.5%
5 | COc1ccc(Cc2nnc(SCC(=O)c3ccc(Cl)cc3)n2Cc2ccccc2)cc1 | 13.6% | 28.6% | 23.7% | 30% | 11.2% | 6.87% | 39.3% | 14.4% | 51.8% | 22.2% | 4.94 | 11.8% | 10% | 17% | 35.2% | 5.52% | 34.7% | 8.87% | 10% | 26.4% | inhibition of growth at 10 µM ([1]; UACC-257, 48 h, read-out: GI): 6.9%; inhibition of growth at 10 µM [7]: 10%; inhibition of growth at 10 µM [9]: 9.2%; inhibition of growth at 10 µM [11]: 3.19%; inhibition of growth at 10 µM [15]: 16.5%; inhibition of growth at 10 µM [18]: 18.4%; inhibition of growth at 10 µM [21]: 11.6%; inhibition of growth at 10 µM [27]: 16%; inhibition of growth at 10 µM [28]: 16%; inhibition of growth at 10 µM [30]: 29.2%; inhibition of growth at 10 µM [31]: 3%; inhibition of growth at 10 µM [32]: 26%
